Laboratory results: patent publication US20220214361A1, “Method for Screening Candidate Drug for Treating Degenerative Brain Diseases” (THE INDUSTRY & ACADEMIC COOPERATION IN CHUNGNAM NATIONAL …, priority 2019, published 2022)
Entries after “also recorded” stand apart in the source; their conditions may differ.

How the values were obtained:
[1] = test system: FAF1 protein secretion in SH-SY5Y cells overexpressing FAF1; test: Secretion of FAF1 protein into culture medium after Brefeldin A treatment (ER-Golgi pathway), Western blotting; assay type: cell-based, human; settings: 10 μM, 24 hours, serum-free DMEM, SH-SY5Y cells transfected with 3x Flag tag-FAF1 vector, FIG. 2b
Procedure: (§1) Particularly, SH-SY5Y cells were aliquoted into 60 mm culture dishes at the density of 5×10^5 cells/dish, and subcultured in DMEM (Dulbecco/s Modified Eagle's Medium) supplemented with antibiotics and 10% FBS (fetal bovine serum) under the conditions of 37° C. and 5% CO2 for 24 hours. The cultured SH-SY5Y cells were transfected with 2 μg of 3x Flag tag-FAF1 expression vector to overexpress FAF1 protein, cultured for 24 hours, and then washed with PPS buffer. Thereafter, the medium was replaced with serum-free DMEM (Dulbecco/s Modified Eagle's Medium), and the cells were treated with 10 μM Brefeldin A (BFA), a compound that inhibits protein secretion through the ER-Golgi pathway, and further cultured in an incubator for 24 hours. The medium was transferred to a 15 ml tube and centrifuged at 1500 rpm for 2 minutes to obtain a supernatant. The obtained supernatant was placed in Amicon Ultra-4 Centrifugal Filter, and centrifuged again at 4000×g, 4° C. for 15 minutes. The protein filtered by the filter was analyzed by Western blotting.

[2] = test system: FAF1 protein secretion in SH-SY5Y cells overexpressing FAF1; test: Secretion of FAF1 protein into culture medium after treatment with compounds that increase or decrease exosome secretion, Western blotting; assay type: cell-based, human; settings: 10 μM, 24 hours, serum-free DMEM, SH-SY5Y cells transfected with 3x Flag tag-FAF1 vector, FIG. 3
Procedure: as §1, with “PBS” for “PPS”, “Monensin” for “Brefeldin A (BFA), a”, “to increase exosome” for “that inhibits protein”, “and 10 μM GW4869 compound to decrease exosome secretion,” for “through the ER-Golgi pathway,”, “cultured” for “cultured in an incubator”

SMILES	expression level of FAF1 protein (secreted into culture medium) versus group not treated [1]	secretion amount of FAF1 compared to control group [2]
C[C@H]1CCC/C=C/[C@@H]2C[C@H](O)C[C@H]2[C@H](O)/C=C/C(=O)O1 [Brefeldin A]	constant; also recorded: no difference	–
O=C(/C=C/c1ccc(/C=C/C(=O)Nc2ccc(C3=NCCN3)cc2)cc1)Nc1ccc(C2=NCCN2)cc1 [GW4869]	–	decreased
CC[C@@]1([C@@H]2O[C@@H]([C@H]3O[C@@](O)(CO)[C@H](C)C[C@@H]3C)C[C@@H]2C)CC[C@H]([C@]2(C)CC[C@]3(C[C@H](O)[C@@H](C)[C@@H]([C@@H](C)[C@@H](OC)[C@H](C)C(=O)O)O3)O2)O1 [Monensin]	–	significantly increased
